Measured values reported in PMC10497752, “Heparins are potent inhibitors of ectonucleotide pyrophosphatase/phospho-diesterase-1 (NPP1) – a promising target for the immunotherapy of cancer” (Frontiers in Immunology, 2023).
Read-outs that look alike come from different tables or passages of the source.

How the values were obtained:
Format in all cases: biochemical
human NPP5 = biological target: T1, human NPP5 (Homo sapiens, UniProt Q9UJA9); experiment: NPP5 colorimetric assay, p-Nph-5'-TMP as substrate; details: 20 µg/mL (12 µM)
T1 sequence (Q9UJA9 25-477): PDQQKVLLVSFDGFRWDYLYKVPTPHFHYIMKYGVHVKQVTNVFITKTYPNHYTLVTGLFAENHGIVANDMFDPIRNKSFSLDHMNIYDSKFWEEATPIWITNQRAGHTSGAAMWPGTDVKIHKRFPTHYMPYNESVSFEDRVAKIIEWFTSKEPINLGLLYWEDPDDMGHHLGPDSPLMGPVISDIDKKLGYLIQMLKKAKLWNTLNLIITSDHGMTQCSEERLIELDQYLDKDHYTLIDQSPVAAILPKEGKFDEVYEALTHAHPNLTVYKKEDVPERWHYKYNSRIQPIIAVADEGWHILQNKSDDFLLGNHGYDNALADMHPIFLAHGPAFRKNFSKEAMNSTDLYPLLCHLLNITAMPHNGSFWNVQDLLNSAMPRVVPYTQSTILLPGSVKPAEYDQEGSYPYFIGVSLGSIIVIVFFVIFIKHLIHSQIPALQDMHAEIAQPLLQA
Procedure: Compounds 1, 2, 5, 6, and 7 were screened at different concentrations using 400 μM of p-nitrophenyl thymidine monophosphate (p-Nph-5´-TMP) as substrate to study potential inhibition of NPP3 and NPP5 using a colorimetric assay as previously described ([21]). Soluble and purified human NPP3, prepared as previously described ([22]), and human NPP5 ([23]) were diluted in the assay buffer (50 mM TRIS HCl, 2 mM CaCl2, and 0.2 mM ZnCl2, pH 9.00), and 0.09 µg of NPP3, or 0.4 µg of NPP5 were employed. The mixtures were incubated for 30 min at 37°C in case of NPP3, and for 100 min at 37°C in case of NPP5, and the reactions were subsequently terminated by adding 20 μL of 1.0 N aq. NaOH solution. The assay is based on the enzymatic ester hydrolysis of p-Nph-5’-TMP which results in the formation of the yellow p-nitrophenolate anion. The absorption was measured at 400 nm using a BMG PheraStar FS plate reader (BMG Labtech GmbH, Ortenberg, Germany). Each analysis was repeated three times with triplicate measurements.

human NPP1 [1] = biological target: T2, human NPP1 (Homo sapiens, UniProt P22413); experiment: NPP1 assay, capillary electrophoresis (CE)-based, ATP as substrate; details: for IC50: human NPP1, 400 µM ATP, CE assay
T2 construct: human recombinant soluble NPP1 (Val191 - Leu591) expressed in murine myeloma NS0 cells; His-tag (N); purchased R&D Systems GmbH (Wiesbaden, Germany); host or cells: murine myeloma NS0 cells
T2 sequence (P22413 191-591): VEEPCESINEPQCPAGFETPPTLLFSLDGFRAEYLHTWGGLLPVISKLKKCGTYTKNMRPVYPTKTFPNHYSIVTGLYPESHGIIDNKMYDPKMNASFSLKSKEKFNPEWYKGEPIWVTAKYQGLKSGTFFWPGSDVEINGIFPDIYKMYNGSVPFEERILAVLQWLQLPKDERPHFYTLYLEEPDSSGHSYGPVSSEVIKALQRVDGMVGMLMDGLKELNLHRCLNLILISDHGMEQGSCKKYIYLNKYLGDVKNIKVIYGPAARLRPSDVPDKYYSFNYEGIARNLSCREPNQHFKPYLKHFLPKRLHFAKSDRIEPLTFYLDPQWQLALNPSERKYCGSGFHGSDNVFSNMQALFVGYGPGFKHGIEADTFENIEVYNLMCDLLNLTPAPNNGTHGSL
Procedure: (§1) Concentration-inhibition curves of the test compounds at human NPP1 were performed with ATP as substrate at a final concentration of 400 μM. Several different dilutions of the test compounds were prepared in assay buffer (10 mM N-cyclohexyl-2-aminoethanesulfonic acid (CHES), 2 mM CaCl2, 1 mM MgCl2, pH 9.00) and incubated with 20 ng of human recombinant soluble NPP1 (Val191 - Leu591) expressed in murine myeloma NS0 cells obtained from R&D Systems GmbH (Wiesbaden, Germany, purity 95%, purified by using an N-terminal His-tag). For initial screening and selectivity analysis, NPP1 prepared as previously described ([20]), diluted in assay buffer, was used. The mixture of enzyme, substrate and test compound or buffer without test compound was incubated for 30 min at 37°C, and the reaction was terminated by heating at 90°C for 5 min. Capillary electrophoresis (CE) analysis was carried out to analyze the formation of the product. Data collection and peak area analysis were performed by the P/ACE MDQ software 32 KARAT obtained from Beckman Coulter (Fullerton, CA, USA). A polyacrylamide-coated capillary was used [30 cm (20 cm effective length) × 50 μm (id) × 360 μm (od) purchased from Chromatographie Service GmbH (Langerwehe, Germany)]. Samples were injected electro-kinetically by applying a voltage of -6 kV for 30 s. Finally, analytes were separated by applying a separation voltage of -20 kV, and detected by UV at 260 nm. The IC50 values were determined by nonlinear curve fitting using the GraphPad Prism Software 7.0. The mechanism of inhibition at human NPP1 was determined employing different concentrations of the investigated compounds 6 (at 0, 0.4, 4.0 µM), and 7 (at 0, 0.4 and 40 µM) versus four different substrate concentrations ranging from 50 to 500 μM of ATP. The assay procedure and operation conditions were the same as described above. The experiment was conducted twice, each in triplicates. A Lineweaver-Burk was calculated using GraphPad Prism 7.0 for predicting the inhibition type of the compound.

human NPP1 [2] = experiment: as above
Procedure: as §1

For `CO[C@H]1O[C@H](COS(=O)(=O)O)[C@@H](O[C@@H]2O[C@@H](C(=O)O)[C@@H](O[C@H]3O[C@H](COS(=O)(=O)O)[C@@H](O[C@@H]4O[C@H](C(=O)O)[C@@H](O[C@H]5O[C@H](COS(=O)(=O)O)[C@@H](O)[C@H](O)[C@H]5NS(=O)(=O)O)[C@H](O)[C@H]4O)[C@H](OS(=O)(=O)O)[C@H]3NS(=O)(=O)O)[C@H](O)[C@H]2OS(=O)(=O)O)[C@H](O)[C@H]1NS(=O)(=O)O` [Compound 6, Fondaparinux], the “NPP5 inhibition, selectivity study” value (human NPP5) was “no effect”, the “inhibition type at human NPP1” value (human NPP1 [1]; Lineweaver-Burk plots, ATP 50-500 µM) was “mixed-type” and the IC50 (human NPP1 [1]; read-out: IC50 ± SD (µg/ml) (converted)) was 3.31 µM. The IC50 (human NPP1 [1]; values of 1 and 2 estimated (1 IU = 0.002 mg; mean 16.5 kDa for heparin-sodium), read-out: IC50 ± SD) was 2.94 ± 0.61 µM, the “NPP1 inhibition, selectivity study” value (human NPP1 [2]; 20 µg/mL (12 µM)) was “full inhibition” and the “inhibition of human NPP1, initial screening” value (human NPP1 [2]; 50 µg/mL (30 µM)) was “almost complete inhibition”.
